# According to publication PMC8465942, “Cyano- and Ketone-Containing Selenoesters as Multi-Target Compounds against Resistant Cancers” (Cancers, 2021):
# Entries after “also recorded” stand apart in the source; their conditions may differ.
# Tested on: Colo 205 human colonic adenocarcinoma cell line
# Assay: Cytotoxicity (MTT) on sensitive Colo 205 cells
# Assay type: cell-based
# Settings: Homo sapiens, COLO 205; 24 h, MTT; read-out: Colo 205 (IC50 µM) Mean
# Source text: (§1) Three cell lines have been used in this study: the doxorubicin-sensitive Colo 205 (CCL-222, ATCC, Manassas, VA, USA) human colonic adenocarcinoma cell line; the multidrug resistant Colo 320/MDR-LRP expressing P-gp (MDR1)-LRP (CCL-220.1, ATCC) human colonic adenocarcinoma cell line; and the MRC-5 human embryonal lung fibroblast cell line (CCL-171, ATCC). The colon adenocarcinoma cell lines were purchased from LGC Promochem (Teddington, UK), and the MRC-5 cell line was purchased from Sigma-Aldrich (Merck KGaA, Darmstadt, Germany). Their culture conditions are as follows: Colo 205 (CCL-222, ATCC) and Colo 320/MDR-LRP expressing P-gp (MDR1)-LRP (CCL-220.1, ATCC) human colon adenocarcinoma cell lines were cultured in RPMI 1640 medium, supplemented with 10% FBS, 2 mM L-glutamine, 1 mM Na-pyruvate, and […]. The cell lines were incubated at 37 °C, 5% CO2, and 95% air atmosphere. The semi-adherent human colon cancer cells were detached with a Trypsin-Versene (EDTA) solution for 5 min at 37 °C. MRC-5 human embryonal lung fibroblast cells were cultured in EMEM containing 4.5 g/L of glucose and supplemented with a non-essential amino acid mixture, a selection of vitamins, and 10% FBS. The cell lines were incubated at 37 °C, 5% CO2, and 95% air atmosphere.
# (§2) The effects of increasing concentrations of the compounds on cell growth were tested in 96-well flat-bottomed microtiter plates. Moreover, 10^4 of human colonic adenocarcinoma cells in 100 μL of the medium (RPMI-1640) were added to each well, except for the medium control wells. The adherent human embryonic lung fibroblast cell line was seeded in the EMEM medium for 4 h before the assay. The two-fold serial dilutions of the compounds were made in a separate plate (0.19–100 μM), and then transferred to the plates containing the adherent corresponding cell line. Culture plates were incubated at 37 °C for 24 h. At the end of the incubation period, 20 μL of MTT (thiazolyl blue tetrazolium bromide) solution (from a 5 mg/mL stock solution) were added to each well. After incubation at 37 °C for 4 h, 100 μL of sodium dodecyl sulfate (SDS) solution (10% SDS in 0.01 M HCl) was added to each well, and the plates were further incubated at 37 °C overnight. Cell growth was determined by measuring the optical density (OD) at 540 nm (ref. 630 nm) with a Multiscan EX ELISA reader (Thermo Labsystems, Cheshire, WA, USA). Inhibition of cell growth was expressed as IC50 values, defined as the inhibitory dose that reduces the growth of the cells exposed to the tested compounds by 50%. IC50 values and the SD of triplicate experiments were calculated by using GraphPad Prism software version 5.00 for Windows, with a non-linear regression curve fit (GraphPad Software, San Diego, CA, USA; www.graphpad.com, accessed on 12 July 2021). Doxorubicin (from a 2 mg/mL stock solution, Teva Pharmaceuticals) was used as a positive control.
# (§3) The selectivity indexes (SI) were calculated as the ratio of the IC50 value in the non-tumour cells and the IC50 in the cancer cell lines. The compound’s activity towards cancer cells is considered as strongly selective if the selectivity index (SI) value is higher than 6, moderately selective if 3 < SI < 6, slightly selective if 1 < SI < 3, and non-selective if SI is lower than 1 [16].
row,SMILES,IC50 [µM]
1,"CC(=O)C[Se]C(=O)c1ccccc1F [K2, Se-(2-Oxopropyl) 2-Fluorobenzoselenoate]",3.35
2,"CC(=O)C[Se]C(=O)c1cccc(C(F)(F)F)c1 [K5, Se-(2-Oxopropyl) 3-(Trifluoromethyl)benzoselenoate]",2.14
3,"CC(=O)C[Se]C(=O)c1ccc(F)c(Cl)c1 [K6, Se-(2-Oxopropyl) 3-Chloro-4-fluorobenzoselenoate]",2.1

# Same assay, conditions: ratio IC50 non-tumour cells / IC50 cancer cells
row,SMILES,SI MRC-5/Colo 205
1,"CC(=O)C[Se]C(=O)c1cccc(C(F)(F)F)c1 [K5, Se-(2-Oxopropyl) 3-(Trifluoromethyl)benzoselenoate]",1.45
2,"CC(=O)C[Se]C(=O)c1ccc(F)c(Cl)c1 [K6, Se-(2-Oxopropyl) 3-Chloro-4-fluorobenzoselenoate]",1.73

# Tested on: HeLa (cervical adenocarcinoma)
# Assay: Cytotoxicity on HeLa cells
# Assay type: cell-based
# Settings: Homo sapiens
# Description: (§4) The activity of selenoesters was tested on several cancer cell lines, including HepG2 (hepatocellular carcinoma, CCL-23TM, ATCC); HeLa (cervical adenocarcinoma, CCL-2TM, ATCC); B16 (skin melanoma, CCL-6322TM, ATCC); and a non-cancerous cell line, HDF (human dermal fibroblasts, Sigma-Aldrich). HepG2, HeLa, B16, and HDF cell lines were cultivated in EMEM medium supplemented with 10% FBS, 2 mM L-glutamine, and 1% penicillin-streptomycin mixture. The HaCaT cell line was cultivated in DMEM medium supplemented with 10% FBS and 1% penicillin-streptomycin mixture. All of the cells were cultivated in a CO2 incubator (5% CO2, 37 °C). Twice per week, the cell lines were passaged according to a standardized protocol with a trypsin-EDTA solution.
# as §3
row,SMILES,IC50 [µM]
1,"CC(=O)C[Se]C(=O)c1ccccc1F [K2, Se-(2-Oxopropyl) 2-Fluorobenzoselenoate]",2.5
2,"CC(=O)C[Se]C(=O)c1cccc(C(F)(F)F)c1 [K5, Se-(2-Oxopropyl) 3-(Trifluoromethyl)benzoselenoate]",2.5
3,"CC(=O)C[Se]C(=O)c1ccc(F)c(Cl)c1 [K6, Se-(2-Oxopropyl) 3-Chloro-4-fluorobenzoselenoate]",2.3

# Tested on: resistant Colo 320 colon adenocarcinoma cells expressing the ABCB1 transporter
# Assay: Checkerboard combination assay with doxorubicin
# Assay type: cell-based, human
# Settings: in all ratios tested
# Description: A checkerboard microplate method was applied to study the effect of drug interactions between the selenocompounds and the chemotherapeutic drug doxorubicin on resistant Colo 320 colon adenocarcinoma cells expressing the ABCB1 transporter. Results were expressed in terms of the combination index (CI) values at 50% growth inhibition (ED50), which were determined by using CompuSyn software to plot 4 or 5 data points for each ratio.
# To perform the experiment, the dilutions of doxorubicin were made in a horizontal direction in 100 µL, and the dilutions of the Se-compounds were made vertically in the microtiter plate in a volume of 50 µL. The cells were re-suspended in the culture medium and distributed into each well in 50 µL portions containing 6000 cells. The plates were incubated for 72 h at 37 °C in a CO2 incubator. The cell growth rate was determined after MTT staining. At the end of the incubation period, 20 μL of MTT solution was added to each well. After incubation at 37 °C for 4 h, 100 μL of SDS was added to each well and the plates were further incubated at 37 °C overnight. The optical density (OD) was measured at 540/630 nm with the Multiscan EX ELISA reader.
row,SMILES,Interaction with doxorubicin
1,"CC(=O)C[Se]C(=O)c1cccc(C(F)(F)F)c1 [K5, Se-(2-Oxopropyl) 3-(Trifluoromethyl)benzoselenoate]",synergistic interaction
2,"CC(=O)C[Se]C(=O)c1ccc(F)c(Cl)c1 [K6, Se-(2-Oxopropyl) 3-Chloro-4-fluorobenzoselenoate]",synergistic interaction

# Same assay, conditions: in at least one of the ratios tested
row,SMILES,Interaction with doxorubicin
1,"CC(=O)C[Se]C(=O)c1cccc(C(F)(F)F)c1 [K5, Se-(2-Oxopropyl) 3-(Trifluoromethyl)benzoselenoate]",synergistic manner; also recorded: interact synergistically
2,"CC(=O)C[Se]C(=O)c1ccc(F)c(Cl)c1 [K6, Se-(2-Oxopropyl) 3-Chloro-4-fluorobenzoselenoate]",synergistic manner; also recorded: interact synergistically

# Same assay, conditions: ratio 0.7:1; starting conc. 6 µM
row,SMILES,Type of Interaction
1,"CC(=O)C[Se]C(=O)c1ccccc1F [K2, Se-(2-Oxopropyl) 2-Fluorobenzoselenoate]",Antagonism
2,"CC(=O)C[Se]C(=O)c1cccc(C(F)(F)F)c1 [K5, Se-(2-Oxopropyl) 3-(Trifluoromethyl)benzoselenoate]",Synergism
3,"CC(=O)C[Se]C(=O)c1ccc(F)c(Cl)c1 [K6, Se-(2-Oxopropyl) 3-Chloro-4-fluorobenzoselenoate]",Synergism

# Same assay, conditions: ratio 1.4:1; starting conc. 6 µM
row,SMILES,Type of Interaction
1,"CC(=O)C[Se]C(=O)c1ccccc1F [K2, Se-(2-Oxopropyl) 2-Fluorobenzoselenoate]",Antagonism
2,"CC(=O)C[Se]C(=O)c1cccc(C(F)(F)F)c1 [K5, Se-(2-Oxopropyl) 3-(Trifluoromethyl)benzoselenoate]",Moderate synergism
3,"CC(=O)C[Se]C(=O)c1ccc(F)c(Cl)c1 [K6, Se-(2-Oxopropyl) 3-Chloro-4-fluorobenzoselenoate]",Moderate synergism

# Same assay, conditions: ratio 2.8:1; starting conc. 6 µM
row,SMILES,Type of Interaction
1,"CC(=O)C[Se]C(=O)c1ccccc1F [K2, Se-(2-Oxopropyl) 2-Fluorobenzoselenoate]",Slight antagonism
2,"CC(=O)C[Se]C(=O)c1cccc(C(F)(F)F)c1 [K5, Se-(2-Oxopropyl) 3-(Trifluoromethyl)benzoselenoate]",Synergism
3,"CC(=O)C[Se]C(=O)c1ccc(F)c(Cl)c1 [K6, Se-(2-Oxopropyl) 3-Chloro-4-fluorobenzoselenoate]",Synergism

# Same assay, conditions: ratio 5.6:1; starting conc. 6 µM
row,SMILES,Type of Interaction
1,"CC(=O)C[Se]C(=O)c1ccccc1F [K2, Se-(2-Oxopropyl) 2-Fluorobenzoselenoate]",Additive effect
2,"CC(=O)C[Se]C(=O)c1cccc(C(F)(F)F)c1 [K5, Se-(2-Oxopropyl) 3-(Trifluoromethyl)benzoselenoate]",Synergism
3,"CC(=O)C[Se]C(=O)c1ccc(F)c(Cl)c1 [K6, Se-(2-Oxopropyl) 3-Chloro-4-fluorobenzoselenoate]",Synergism

# Same assay, conditions: ratio 11.2:1; starting conc. 6 µM
row,SMILES,Type of Interaction
1,"CC(=O)C[Se]C(=O)c1ccccc1F [K2, Se-(2-Oxopropyl) 2-Fluorobenzoselenoate]",Antagonism
2,"CC(=O)C[Se]C(=O)c1cccc(C(F)(F)F)c1 [K5, Se-(2-Oxopropyl) 3-(Trifluoromethyl)benzoselenoate]",Synergism
3,"CC(=O)C[Se]C(=O)c1ccc(F)c(Cl)c1 [K6, Se-(2-Oxopropyl) 3-Chloro-4-fluorobenzoselenoate]",Synergism

# Same assay, conditions: ratio 22.4:1; starting conc. 6 µM
row,SMILES,Type of Interaction
1,"CC(=O)C[Se]C(=O)c1ccccc1F [K2, Se-(2-Oxopropyl) 2-Fluorobenzoselenoate]",Antagonism
2,"CC(=O)C[Se]C(=O)c1cccc(C(F)(F)F)c1 [K5, Se-(2-Oxopropyl) 3-(Trifluoromethyl)benzoselenoate]",Synergism
3,"CC(=O)C[Se]C(=O)c1ccc(F)c(Cl)c1 [K6, Se-(2-Oxopropyl) 3-Chloro-4-fluorobenzoselenoate]",Synergism

# Tested on: Colo 320/MDR-LRP human colonic adenocarcinoma cell line
# Assay: Cytotoxicity (MTT) on resistant Colo 320 cells
# Assay type: cell-based
# Settings: Homo sapiens, COLO 320; 24 h, MTT; read-out: Colo 320 (IC50 µM) Mean
# Source text: as §1, §2, §3
row,SMILES,IC50 [µM]
1,"CC(=O)C[Se]C(=O)c1ccccc1F [K2, Se-(2-Oxopropyl) 2-Fluorobenzoselenoate]",2.38
2,"CC(=O)C[Se]C(=O)c1cccc(C(F)(F)F)c1 [K5, Se-(2-Oxopropyl) 3-(Trifluoromethyl)benzoselenoate]",2.17
3,"CC(=O)C[Se]C(=O)c1ccc(F)c(Cl)c1 [K6, Se-(2-Oxopropyl) 3-Chloro-4-fluorobenzoselenoate]",2.1

# Same assay, conditions: ratio IC50 non-tumour cells / IC50 cancer cells
row,SMILES,SI MRC-5/Colo 320
1,"CC(=O)C[Se]C(=O)c1ccccc1F [K2, Se-(2-Oxopropyl) 2-Fluorobenzoselenoate]",1.06
2,"CC(=O)C[Se]C(=O)c1cccc(C(F)(F)F)c1 [K5, Se-(2-Oxopropyl) 3-(Trifluoromethyl)benzoselenoate]",1.43
3,"CC(=O)C[Se]C(=O)c1ccc(F)c(Cl)c1 [K6, Se-(2-Oxopropyl) 3-Chloro-4-fluorobenzoselenoate]",1.72

# Tested on: HeLa (cervical adenocarcinoma)
# Assay: Cytotoxicity on HeLa cells
# Assay type: cell-based, human
# Settings: ratio IC50 non-tumour cells / IC50 cancer cells
row,SMILES,SI MRC-5/HeLa
1,"CC(=O)C[Se]C(=O)c1ccccc1F [K2, Se-(2-Oxopropyl) 2-Fluorobenzoselenoate]",1.0
2,"CC(=O)C[Se]C(=O)c1cccc(C(F)(F)F)c1 [K5, Se-(2-Oxopropyl) 3-(Trifluoromethyl)benzoselenoate]",1.2
3,"CC(=O)C[Se]C(=O)c1ccc(F)c(Cl)c1 [K6, Se-(2-Oxopropyl) 3-Chloro-4-fluorobenzoselenoate]",1.6

# Tested on: B16 (skin melanoma)
# Assay: Cytotoxicity on B16 cells
# Assay type: cell-based, murine
# Settings: Mus musculus
# Description: as §4, §3
row,SMILES,IC50 [µM]
1,"CC(=O)C[Se]C(=O)c1ccccc1F [K2, Se-(2-Oxopropyl) 2-Fluorobenzoselenoate]",1.2
2,"CC(=O)C[Se]C(=O)c1cccc(C(F)(F)F)c1 [K5, Se-(2-Oxopropyl) 3-(Trifluoromethyl)benzoselenoate]",1.1
3,"CC(=O)C[Se]C(=O)c1ccc(F)c(Cl)c1 [K6, Se-(2-Oxopropyl) 3-Chloro-4-fluorobenzoselenoate]",1.3

# Tested on: not listed separately
# Assay: Cytotoxicity (MTT) on normal MRC-5 fibroblasts
# Assay type: cell-based
# Settings: human
# Source text: as §1, §2
row,SMILES,IC50 at 24 h [µM]
1,"CC(=O)C[Se]C(=O)c1ccccc1F [K2, Se-(2-Oxopropyl) 2-Fluorobenzoselenoate]",2.53
2,"CC(=O)C[Se]C(=O)c1cccc(C(F)(F)F)c1 [K5, Se-(2-Oxopropyl) 3-(Trifluoromethyl)benzoselenoate]",3.11
3,"CC(=O)C[Se]C(=O)c1ccc(F)c(Cl)c1 [K6, Se-(2-Oxopropyl) 3-Chloro-4-fluorobenzoselenoate]",3.62

# Tested on: HepG2 (hepatocellular carcinoma)
# Assay: Cytotoxicity on HepG2 cells
# Assay type: cell-based
# Settings: Homo sapiens
# Description: as §4, §3
row,SMILES,IC50 [µM]
1,"CC(=O)C[Se]C(=O)c1ccccc1F [K2, Se-(2-Oxopropyl) 2-Fluorobenzoselenoate]",2.2
2,"CC(=O)C[Se]C(=O)c1cccc(C(F)(F)F)c1 [K5, Se-(2-Oxopropyl) 3-(Trifluoromethyl)benzoselenoate]",2.4
3,"CC(=O)C[Se]C(=O)c1ccc(F)c(Cl)c1 [K6, Se-(2-Oxopropyl) 3-Chloro-4-fluorobenzoselenoate]",2.9
